The structures appear in SMILES notation. Values after ≈ are worked out from the molar mass of the structure shown.

In data set [1] the test system is U937 cells. The data set can be described thus: Cellular assay in U937 cells to measure the activity of RIPK1-inhibitors on cell death (necroptosis). In kind it is cell-based. Particulars: Homo sapiens, U-937, 50 μM zVAD.fmk and 100 ng/ml recombinant human TNFα, overnight (18 to 24 hrs), MTS readout. The method, then:
Absorbance of formazan was read at 490 nm. The inhibitory activity of the test compound was quantified in a concentration response curve (CRC) experiment.
Compounds were obtained as 10 mM stock solutions and were diluted 1 to 10 volumes with DMSO to yield a 1 mM solution. From this solution 2 μl were diluted with 998 μl growth medium.
U937 cells were cultured in RPMI1640 Glutamax and 10% heat inactivated FBS. […] 50 μl of compound dilutions, as described in Cellular assay in U937 cells, were added and the cell suspension incubated overnight (18 to 24 hrs) at 37° C., 5% CO2 in a humidified atmosphere (95% rH).
CellTiter 96 Aqueous reagent was mixed (100 μl PMS (phenazine methosulfate) solution/2 ml MTS (3-(4,5-[…])-5-(3-carboxymethoxyphenyl)-2-(4-sulfophenyl)-2H-tetrazolium, inner salt) solution) and 20 μl were added per well. After 4 hrs incubation at 37° C. (5% CO2 95% rH) optical density was measured at 490 nm on a microplate reader (Tecan Infinite M1000).
The % inhibition is expressed as percentage of the maximal inhibition value obtained in the absence of TNFα/zVAD.fmc.

A short description of data set [2]: physchem. Particulars: 50 mM phosphate buffer, 25 °C, pH 7.4, aqueous buffer, thermodynamic from solid.

The IC50 is the concentration that inhibits the measured activity by half. The solubility is the concentration that dissolves in the medium under given conditions. A low value points to a poorly soluble substance. In the case of `Cc1cnn(-c2nccc(N3CCC(C(=O)N4OCC[C@H]4c4ccc(C)nc4)CC3)n2)c1` [Example 16, [1-[2-(4-methylpyrazol-1-yl)pyrimidin-4-yl]-4-piperidyl]-[(3S)-3-(6-methyl-3-pyridyl)isoxazolidin-2-yl]methanone], the 50% inhibitory concentration (IC50) in data set [1] is 53 nM. The solubility at 16 h in data set [2] is 169 µM (≈ 73.2 µg/mL).

Consider `Cc1nccn1-c1ccnc(N2CCC(C(=O)N3OCC[C@H]3c3cnccn3)CC2)n1` [Example 30, (S)-(1-(4-(2-methyl-1H-imidazol-1-yl)pyrimidin-2-yl)piperidin-4-yl)(3-(pyrazin-2-yl)isoxazolidin-2-yl)methanone], for which the 50% inhibitory concentration (IC50) in data set [1] stood at 3 nM. Moreover, the solubility at 16 h in data set [2] is greater than 1190 µM.

For `O=C1CCCCN1c1ccnc(N2CCC(C(=O)N3OCC[C@H]3c3cnccn3)CC2)n1` [Example 47, 1-[2-[4-[(3S)-3-pyrazin-2-yl-1,2-oxazolidine-2-carbonyl]piperidin-1-yl]pyrimidin-4-yl]piperidin-2-one], the concentration for half-maximal inhibition (IC50) in data set [1] came to 71 nM. Also, the solubility at 16 h in data set [2] is greater than 1140 µM.

`O=C1CCCN1c1nccc(N2CCC(C(=O)N3OCC[C@H]3c3cncc(F)c3)CC2)n1` [Example 71, 1-[4-[4-[(3S)-3-(5-fluoropyridin-3-yl)-1,2-oxazolidine-2-carbonyl]piperidin-1-yl]pyrimidin-2-yl]pyrrolidin-2-one]: the concentration for half-maximal inhibition (IC50) in data set [1] is 2340 nM. The molecule further returned a solubility at 16 h in data set [2] greater than 1140 µM.

`Cc1ccc([C@@H]2CCON2C(=O)C2CCN(c3nccc(-c4ncco4)n3)CC2)cn1` [Example 37, [(3S)-3-(6-methylpyridin-3-yl)-1,2-oxazolidin-2-yl]-[1-[4-(1,3-oxazol-2-yl)pyrimidin-2-yl]piperidin-4-yl]methanone]: the 50% inhibitory concentration (IC50) in data set [1] is 41 nM. The molecule further displayed a solubility at 16 h in data set [2] of 34.7 µM (≈ 14.6 µg/mL).

In the case of `Cc1ncc([C@@H]2CCON2C(=O)C2CCN(c3nccc(-c4cc(N)nn4C)n3)CC2)cc1F` [Example 102, [1-[4-(5-amino-2-methylpyrazol-3-yl)pyrimidin-2-yl]piperidin-4-yl]-[(3S)-3-(5-fluoro-6-methylpyridin-3-yl)-1,2-oxazolidin-2-yl]methanone], in data set [1], the IC50 turned out to be 1 nM. Moreover, in data set [2], the solubility at 16 h is greater than 1070 µM.

In data set [2], `Cc1ccc([C@@H]2CCON2C(=O)[C@H]2CCN(c3cc(-c4ccnn4C)ncn3)CC23CC3)cn1` [Example 80, [5-[6-(2-methylpyrazol-3-yl)pyrimidin-4-yl]-5-azaspiro[2.5]octan-8-yl]-[(3S)-3-(6-methylpyridin-3-yl)-1,2-oxazolidin-2-yl]methanone] displayed a solubility at 16 h greater than 1090 µM.

In the case of `Cc1ccc([C@@H]2CCON2C(=O)C2CCN(c3cc(-c4ccnn4C)ncn3)CC23CC3)cn1` (mixture of isomers) [Example 34, [5-[6-(2-methylpyrazol-3-yl)pyrimidin-4-yl]-5-azaspiro[2.5]octan-8-yl]-[(3S)-3-(6-methylpyridin-3-yl)-1,2-oxazolidin-2-yl]methanone], the IC50 in data set [1] is 52.9 nM. In addition, the solubility at 16 h in data set [2] is greater than 1090 µM.

As for `O=C(C1CCN(c2ncc(F)c(-c3ncco3)n2)CC1)N1OCC[C@H]1c1cnccn1` [Example 12, [1-(5-fluoro-4-oxazol-2-yl-pyrimidin-2-yl)-4-piperidyl]-[(3S)-3-pyrazin-2-ylisoxazolidin-2-yl]methanone], the IC50 in data set [1] was determined as 1 nM. For the same molecule, in data set [2], the solubility at 16 h is greater than 1180 µM.

For `Cc1ccc([C@@H]2CCON2C(=O)C2CCN(c3nccc(N4C(=O)CCC4(C)C)n3)CC2)cn1` [Example 88, 5,5-dimethyl-1-[2-[4-[(3S)-3-(6-methylpyridin-3-yl)-1,2-oxazolidine-2-carbonyl]piperidin-1-yl]pyrimidin-4-yl]pyrrolidin-2-one], in data set [1], the IC50 was found to be 1360 nM. Further, the solubility at 16 h in data set [2] is greater than 1080 µM.

For `Cc1cncc([C@@H]2CCON2C(=O)C2CCN(c3ncc(F)c(N4CCC5(CC5)C4=O)n3)CC2)c1` [Example 103, 5-[5-fluoro-2-[4-[(3S)-3-(5-methylpyridin-3-yl)-1,2-oxazolidine-2-carbonyl]piperidin-1-yl]pyrimidin-4-yl]-5-azaspiro[2.4]heptan-4-one], in data set [1], the half-maximal inhibitory concentration (IC50) was 6 nM. The solubility at 16 h in data set [2] is greater than 1040 µM.

In data set [2], `Cc1ccc([C@@H]2CCON2C(=O)[C@H]2CCN(c3cc(-n4ccnc4C)ncn3)CC23CC3)cn1` (single isomer, unassigned) [Example 79] came in with a solubility at 16 h greater than 1090 µM.

Regarding `Cc1ccc([C@@H]2CCON2C(=O)C2CCN(c3ncc(F)c(-c4ccnn4C)n3)CC2)cn1` [Example 19, [1-[5-fluoro-4-(2-methylpyrazol-3-yl)pyrimidin-2-yl]-4-piperidyl]-[(3S)-3-(6-methyl-3-pyridyl)isoxazolidin-2-yl]methanone], the solubility at 16 h in data set [2] turned out to be 7.1 µM (≈ 3.21 µg/mL).

Consider `O=C(C1CCN(c2ncc(F)c(-c3cncs3)n2)CC1)N1OCC[C@H]1c1cnccn1` [Example 27, (S)-(1-(5-fluoro-4-(thiazol-5-yl)pyrimidin-2-yl)piperidin-4-yl)(3-(pyrazin-2-yl)isoxazolidin-2-yl)methanone], for which, in data set [1], the IC50 was 1 nM.

In the case of `Cc1nc([C@@H]2CCON2C(=O)[C@@H]2CCN(c3cc(-c4ncnn4C)ncn3)CC23CC3)cs1` [Example 41, [(3S)-3-(2-methyl-1,3-thiazol-4-yl)-1,2-oxazolidin-2-yl]-[(8R)-5-[6-(2-methyl-1,2,4-triazol-3-yl)pyrimidin-4-yl]-5-azaspiro[2.5]octan-8-yl]methanone], the half-inhibitory concentration (IC50) in data set [1] was determined as 44 nM.

For `Cc1ccc([C@@H]2CCON2C(=O)C2CCN(c3cc(-c4ccnn4C)ncn3)CC2)cn1` [Example 18, [1-[6-(2-methylpyrazol-3-yl)pyrimidin-4-yl]-4-piperidyl]-[(3S)-3-(6-methyl-3-pyridyl)isoxazolidin-2-yl]methanone], in data set [1], the IC50 was 70 nM.

As for `O=C(C1CCN(c2nc(-c3ncco3)ncc2F)CC1)N1OCC[C@H]1c1cnccn1` [Example 13, [1-(5-fluoro-2-oxazol-2-yl-pyrimidin-4-yl)-4-piperidyl]-[(3S)-3-pyrazin-2-ylisoxazolidin-2-yl]methanone], the IC50 in data set [1] is 27 nM.

As for `Cc1ccc([C@@H]2CCON2C(=O)[C@@H]2CCN(c3nccc(N4CCOCC4=O)n3)CC23CC3)cn1` [Example 63, 4-[2-[(8R)-8-[(3S)-3-(6-methylpyridin-3-yl)-1,2-oxazolidine-2-carbonyl]-5-azaspiro[2.5]octan-5-yl]pyrimidin-4-yl]morpholin-3-one], the IC50 in data set [1] was found to be 44 nM.

As for `O=C(C1CCN(c2nccc(N3CCCC4(CC4)C3=O)n2)CC1)N1OCC[C@H]1c1cncc(F)c1` [Example 72, 5-[2-[4-[(3S)-3-(5-fluoropyridin-3-yl)-1,2-oxazolidine-2-carbonyl]piperidin-1-yl]pyrimidin-4-yl]-5-azaspiro[2.5]octan-4-one], the half-maximal inhibitory concentration (IC50) in data set [1] came to 58 nM.

On to `Cc1ccc([C@@H]2CCON2C(=O)[C@@H]2CCN(c3ccnc(N4CCCC4=O)n3)CC23CC3)cn1` [Example 85, 1-[4-[(8R)-8-[(3S)-3-(6-methylpyridin-3-yl)-1,2-oxazolidine-2-carbonyl]-5-azaspiro[2.5]octan-5-yl]pyrimidin-2-yl]pyrrolidin-2-one], for which the half-maximal inhibitory concentration (IC50) in data set [1] was found to be 517 nM.

Regarding `Cc1cnc([C@@H]2CCON2C(=O)C2CCN(c3nccc(N4CCCC4=O)n3)CC2)cn1` [Example 55, 1-[2-[4-[(3S)-3-(5-methylpyrazin-2-yl)-1,2-oxazolidine-2-carbonyl]piperidin-1-yl]pyrimidin-4-yl]pyrrolidin-2-one], the half-maximal inhibitory concentration (IC50) in data set [1] turned out to be 78 nM.

Take `Cn1nccc1-c1cc(N2CC[C@@H](C(=O)N3OCC[C@H]3c3cnccn3)C3(CC3)C2)ncn1` [Example 39, [(8R)-5-[6-(2-methylpyrazol-3-yl)pyrimidin-4-yl]-5-azaspiro[2.5]octan-8-yl]-[(3S)-3-pyrazin-2-yl-1,2-oxazolidin-2-yl]methanone]: the half-inhibitory concentration (IC50) in data set [1] came to 20 nM.

Regarding `Cc1ncc([C@@H]2CCON2C(=O)C2CCN(c3nccc(N4C(=O)CCC4(C)C)n3)CC2)cc1F` [Example 89, 1-[2-[4-[(3S)-3-(5-fluoro-6-methylpyridin-3-yl)-1,2-oxazolidine-2-carbonyl]piperidin-1-yl]pyrimidin-4-yl]-5,5-dimethylpyrrolidin-2-one], the IC50 in data set [1] worked out at 320 nM.

In the case of `O=C(C1CCN(c2ncc(F)c(-n3cccn3)n2)CC1)N1OCC[C@H]1c1cnccn1` [Example 32, (S)-(1-(5-fluoro-4-(1H-pyrazol-1-yl)pyrimidin-2-yl)piperidin-4-yl)(3-(pyrazin-2-yl)isoxazolidin-2-yl)methanone], the IC50 in data set [1] came to 1 nM.

Turning to `Cc1cncc([C@@H]2CCON2C(=O)C2CCN(c3nccc(N4CCC5(CC5)C4=O)n3)CC2)c1` [Example 51, 5-[2-[4-[(3S)-3-(5-methylpyridin-3-yl)-1,2-oxazolidine-2-carbonyl]piperidin-1-yl]pyrimidin-4-yl]-5-azaspiro[2.4]heptan-4-one], the IC50 in data set [1] stood at 26 nM.

With `Cc1ccc([C@@H]2CCON2C(=O)C2CCN(c3nccc(N4CCCC(F)(F)C4=O)n3)CC2)cn1` [Example 66, 3,3-difluoro-1-[2-[4-[(3S)-3-(6-methylpyridin-3-yl)-1,2-oxazolidine-2-carbonyl]piperidin-1-yl]pyrimidin-4-yl]piperidin-2-one], the IC50 in data set [1] is 3440 nM.

With `Cc1cncc([C@@H]2CCON2C(=O)C2CCN(c3nccc(N4CCCC(F)(F)C4=O)n3)CC2)c1` [Example 76, 3,3-difluoro-1-[2-[4-[(3S)-3-(5-methylpyridin-3-yl)-1,2-oxazolidine-2-carbonyl]piperidin-1-yl]pyrimidin-4-yl]piperidin-2-one], the half-maximal inhibitory concentration (IC50) in data set [1] turned out to be 485 nM.

(Values after patent publication US20260234136A1, “ISOXAZOLIDINES AS RIPK1 INHIBITORS AND USE THEREOF” (GENZYME CORPORATION, priority 2023, published 2026).)
